Test results as given in ChEMBL document CHEMBL1201862, “PubChem BioAssay data set” (2004).
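Test compounds were applied to cells in 96-well plates for 48 hours at 5 doses. At the GI50, growth is halved.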 Active and inactive are the calls of the source. No stated cut-off is given here; in the data, active = GI50 up to about 1.1 µM and inactive = higher.

Tests used:
Assay in all cases: NCI-60 cell line screen, 48 h
[1] = tested on: 786-0
[2] = tested on: A498
[3] = tested on: A549
[4] = tested on: ACHN
[5] = tested on: BT-549
[6] = tested on: CAKI-1
[7] = tested on: CCRF-CEM
[8] = tested on: COLO 205
[9] = tested on: DU-145
[10] = tested on: EKVX
[11] = tested on: HCC 2998
[12] = tested on: HCT-116
[13] = tested on: HCT-15
[14] = tested on: HL-60
[15] = tested on: HOP-62
[16] = tested on: HOP-92
[17] = tested on: HT-29
[18] = tested on: Hs-578T
[19] = tested on: IGROV-1
[20] = tested on: K562
[21] = tested on: KM12
[22] = tested on: LOX IMVI
[23] = tested on: M14
[24] = tested on: MCF7
[25] = tested on: MDA-MB-231
[26] = tested on: MDA-MB-435
[27] = tested on: MDA-N
[28] = tested on: MOLT-4
[29] = tested on: Malme-3M
[30] = tested on: NCI-H226
[31] = tested on: NCI-H23
[32] = tested on: NCI-H460
[33] = tested on: NCI-H522
[34] = tested on: NCI/ADR-RES
[35] = tested on: OVCAR-3
[36] = tested on: OVCAR-4
[37] = tested on: OVCAR-5
[38] = tested on: OVCAR-8
[39] = tested on: PC-3
[40] = tested on: RPMI-8226
[41] = tested on: RXF 393
[42] = tested on: SF-268
[43] = tested on: SF-295
[44] = tested on: SF-539
[45] = tested on: SK-MEL-28
[46] = tested on: SK-MEL-2
[47] = tested on: SK-MEL-5
[48] = tested on: SK-OV-3
[49] = tested on: SN12C
[50] = tested on: SNB-19
[51] = tested on: SNB-75
[52] = tested on: SR
[53] = tested on: SW-620
[54] = tested on: T47D
[55] = tested on: TK-10
[56] = tested on: U-251
[57] = tested on: UACC-257
[58] = tested on: UACC-62
[59] = tested on: UO-31

Measured: GI50

O=S(=O)(/C=C/C=C/[S+]([O-])c1ccccc1)c1ccccc1 (stereo not drawn)
inactive: [2] 6.97 µM | [3] > 10 µM | [4] 2.34 µM | [5] > 10 µM | [6] 1.84 µM | [8] 1.76 µM | [9] > 4.42 µM | [10] > 10 µM | [11] > 10 µM | [12] 1.38 µM | [15] > 10 µM | [16] 1.96 µM | [17] 2.21 µM | [18] 3.51 µM | [19] > 5.41 µM | [21] > 2.63 µM | [25] 2.81 µM | [26] 2.07 µM | [27] 2.95 µM | [28] 1.42 µM | [29] 1.98 µM | [30] > 10 µM | [31] 1.96 µM | [32] > 10 µM | [33] 1.59 µM | [34] 2.12 µM | [35] 1.53 µM | [36] 1.59 µM | [37] > 8.22 µM | [38] 1.7 µM | [39] > 6.92 µM | [41] 1.58 µM | [42] 3.13 µM | [43] > 10 µM | [44] 8.09 µM | [45] 1.98 µM | [46] 2.01 µM | [48] > 10 µM | [49] 2 µM | [50] > 10 µM | [51] 4.66 µM | [53] 1.3 µM | [54] 2.02 µM | [55] 2.09 µM | [56] > 10 µM | [57] 1.67 µM | [58] 1.44 µM | [59] 2.27 µM
2050 nM: [13]
active: [1] 0.625 µM | [7] 333 nM | [14] 327 nM | [20] 902 nM | [22] 1.03 µM | [23] 0.685 µM | [24] 887 nM | [40] 875 nM | [47] 1.03 µM | [52] 877 nM

CSc1ccccc1P(CCP(c1ccccc1SC)c1ccccc1SC)c1ccccc1SC
> 67000 nM: [13]
inactive: [1] 15.6 µM | [2] 40.4 µM | [3] 3.96 µM | [4] 47.2 µM | [5] 38.7 µM | [6] > 84.5 µM | [9] 54.5 µM | [10] 19.6 µM | [11] 4.88 µM | [15] 8.61 µM | [16] 61.1 µM | [17] 1.28 µM | [18] 28.7 µM | [20] 1670 nM | [21] 18.6 µM | [22] 22.6 µM | [23] 24.3 µM | [24] 1950 nM | [25] 8.81 µM | [26] 31.5 µM | [27] 50.5 µM | [28] 2.22 µM | [29] 29.9 µM | [30] 10.4 µM | [32] 3.13 µM | [33] 28.1 µM | [34] > 93.1 µM | [36] 14.3 µM | [37] 43.9 µM | [38] 8.73 µM | [40] 4470 nM | [41] 30.8 µM | [42] 36.4 µM | [43] 7.08 µM | [44] 34.1 µM | [45] 76.2 µM | [46] 53.3 µM | [47] 55.5 µM | [48] 16.3 µM | [49] 38.3 µM | [50] 35.4 µM | [51] 13 µM | [53] 16.7 µM | [54] 12.4 µM | [55] > 69 µM | [56] 4.2 µM | [57] 13.5 µM | [58] > 86.5 µM | [59] > 44.4 µM
active: [7] 953 nM | [8] 0.697 µM | [12] 0.413 µM | [14] 400 nM | [19] 0.8 µM | [31] 1 µM | [35] 0.543 µM | [39] 0.912 µM | [52] 1110 nM
